Source: patent publication US10493131B2, “Materials and methods for modulating activity of bone marrow derived cells” (University of Florida Research Foundation, Incorporated, priority 2011, dated 2019)

What was measured:
CD34+ BMDEC [1] = experiment: SDF-1/Relaxin induced chemotaxis (Boyden chamber); assay type: cell-based, human; details: 10 μM L-NAME
Experimental: Isolation of CD34+ BMDEC. The study protocol was approved by the Institutional Review Board of the University of Florida, and written informed consent was obtained from each subject. Blood was collected from healthy controls by routine venipuncture into CPT™ Tubes with heparin (BD Biosciences, Franklin Lakes, N.J.), centrifuged at room temperature in a swinging bucket rotor for 20 minutes at 1800 RCF, the peripheral blood mononuclear cells (PBMCs) diluted with phosphate buffered saline supplemented with 2 mM EDTA (PBSE) and centrifuged for 10 minutes at 300 RCF. After washing the cell pellet, centrifugation was repeated. 3.3×10^7 PBMCs were resuspended in 100 μl of PBSE to which 33 μl of FcR blocking reagent (Miltenyi Biotec Inc., Auburn, Calif.) and 33 μl of magnetic microbeads conjugated with an anti-CD34 antibody was added. After incubation for 30 minutes at 4° C., the cells were diluted in 10× the volume of PBSE supplemented with 0.1% bovine serum albumin. The CD34+ BMDEC were positively selected using an automated magnetic selection autoMACS™ (Miltenyi Biotec Inc., Auburn, Calif.). […] After 4.5 hours at 5% CO2 at 37° C., the percentage of cells that migrated was determined by collecting the media in the lower chamber and determining the relative fluorescence using a Synergy™ HT (Bio-Tek Instruments, Inc., Winooski, Vt.) with an excitation of 485±20 and an emission of 528±20 nm. […]

CD34+ BMDEC [2] = experiment: Detection of nitric oxide (NO) produced by cells (DAF-FM fluorescence); assay type: cell-based, human; details: pretreatment with MK2206 20 nM 30 minutes; 50 ng/ml rhRLX
Experimental: Isolation of CD34+ BMDEC. The study protocol was approved by the Institutional Review Board of the University of Florida, and written informed consent was obtained from each subject. Blood was collected from healthy controls by routine venipuncture into CPT™ Tubes with heparin (BD Biosciences, Franklin Lakes, N.J.), centrifuged at room temperature in a swinging bucket rotor for 20 minutes at 1800 RCF, the peripheral blood mononuclear cells (PBMCs) diluted with phosphate buffered saline supplemented with 2 mM EDTA (PBSE) and centrifuged for 10 minutes at 300 RCF. After washing the cell pellet, centrifugation was repeated. […]
Detection of Nitric Oxide (NO) produced by cells. […] Bioavailable NO was determined as previously described (Shah, R., Beem, E., Sautina, L., Zharikov, S. I., and Segal, M. S. 2007. Mitomycin- and calcineurin-associated HUS, endothelial dysfunction and endothelial repair: a new paradigm for the puzzle? Nephrol Dial Transplant 22:617-620). […] DAF-FM fluorescence increases by about 160-fold when it reacts with NO. Green fluorescence was measured using the inverted fluorescent Carl Zeiss Axiovert 200M microscope equipped with a CCD camera and Slidebook software (v.4.1; Intelligent Imaging Innovations, Inc. Denver, Colo.). Fluorescence intensity was measured in 20-30 cells per field in at least 6 fields per well. […]

SMILES | effect on basal level of migration (CD34+ BMDEC [1]) | effect on relaxin-stimulated chemotaxis (CD34+ BMDEC [1]; 50 ng/ml rhRLX) | effect on rhRLX stimulation of NO (CD34+ BMDEC [2])
COC(=O)[C@@H](N)CCCNC(=N)N[N+](=O)[O-] [L-NAME, L—N^G-nitroarginine methy ester] | unaffected | blocked | –
NC1(c2ccc(-c3nc4ccn5c(=O)[nH]nc5c4cc3-c3ccccc3)cc2)CCC1 [MK2206] | – | – | prevented
